What was measured:
[1] = tested on: mice; assay: Locomotor activity (ultromotivity) measurement, evaluation of sedative action; assay type: in vivo; conditions: for Significant difference test of ultromotivity: Tukey's method; for Ultromotivity (count) 60 minutes / Significant difference test of ultromotivity: 60 minutes
Method: (§1) In the following Examples, all extracts and drugs used were dissolved in physiological saline before use for i.p. administration and the dose was 0.1 ml of physiological saline per 10 g of mouse body weight in either case. All extracts and drugs were suspended in physiological saline containing 1% carboxymethylcellulose before use for oral administration and the dose was 0.1 ml of 1% carboxymethylcellulose-containing physiological saline suspension per 10 g of mouse body weight in either case. Male ICR mice (Japan SLC) having a body weight of 25 to 30 g were used in the tests below unless otherwise stated, and were fed in advance at a room temperature of 23±1° C. and a relative humidity of 55±5% in the environment of a 12-hour-light and 12-hour-dark cycle at 7 and 19 for 3 to 5 days. The mice were allowed to have water and feed freely.
Twenty five mice were grouped into five groups each having five mice, to which 5 mg/kg of N-methylcoclaurine hydrochloride (treatment group 1-1: i.p. administration), 50 mg/kg of neferine hydrochloride (treatment group 1-2: oral administration, and treatment group 1-3: i.p. administration), 50 mg/kg of liensinine hydrochloride (treatment group 1-4: oral administration), or physiological saline (negativity control group 1-1: i.p. administration) was administered. The ultromotivity of the mice was analyzed by using a locomotor activity monitoring system (NS-AS01, Neuroscience Inc.). The ultromotivity measurements were performed at an interval of 5 minutes for 60 minutes, and the ultromotivity was judged from the count at each measuring time.
Similar tests were conducted by i.p. administration of 25 mg/kg of N-norarmepavine (treatment group 1-5, n=6), 25 mg/kg of O,O-dimethylcoclaurine (treatment group 1-6, n=5), 10 mg and 25 mg/kg of armepavine (respectively, treatment group 1-7, n=6, and treatment group 1-8, n=6), 10 mg and 25 mg/kg of O-methylarmepavine (respectively, treatment group 1-9, n=6, and treatment group 1-10, n=6), and physiological saline (negativity control group 1-2, n=5). The ultromotivity measurements were performed at an interval of five minutes for 60 minutes, and the ultromotivity was subjected to a significant difference test (Tukey's method) by using the counts at respective measuring times.
(§2) Tests were performed by using mice administered intraperitoneally with 25 mg/kg of neferine hydrochloride (treatment group 7-1, n=6), 25 mg/kg of liensinine hydrochloride (treatment group 7-2, n=6), and physiological saline (negativity control group, n=6) as well as 5 mg/kg of diazepam (positive control group, n=6) and a rotarod equipment (Ugo Basile, Italy) and a locomotor activity monitoring system (NS-ASO1, Neuroscience Inc.). The rotarod test was performed by placing a mouse on a rod having a diameter of 4 cm rotating at a speed of 8 rpm 15 minutes after drug administration and observing whether the mouse can stay on the rod without falling for three minutes. The individuals that had fallen from the rotating rod in the period of 3 minutes were judged that they are with motor coordination disorder. […] In addition, the ultromotivity measurements were performed at an interval of five minutes for 60 minutes, and the ultromotivity results were subjected to a significant difference test (Tukey's method) by using the counts at respective measuring times.

[2] = tested on: mice; assay: Rotarod test (muscle relaxation, motor coordination); assay type: in vivo; conditions: n=6, 8 rpm, 3 minutes, 15 minutes after administration
Method: as §1, §2

[3] = tested on: mice; assay: Thiopental sleep-enhancing test; assay type: in vivo; conditions: 15 minutes before thiopental 60 mg/kg i.p.
Method: as §1
Actions on thiopental sleep by various compounds were evaluated. Thiopental dissolved in physiological saline was administered intraperitoneally into mice at a dose of 60 mg/kg. 50 mg/kg of neferine hydrochloride (treatment group 2-1, n=9), 50 mg/kg of isoliensinine hydrochloride (treatment group 2-2, n=9), 100 mg/kg of lien tzehsin 2 extract hydrochloride (treatment group 2-3, n=9), only physiological saline (negativity control group, n=6), or 1 mg/kg of diazepam (positive control group, n=9) was administered intraperitoneally into the mice 15 minutes before the thiopental administration. The time when the righting reflex of the mice disappeared after thiopental administration was designated as sleep-induction time, while total sleep time was calculated from the induction time and the time when the righting reflex was restored.

[4] = tested on: mice; assay: Suppression of methamphetamine-enhanced ultromotivity; assay type: in vivo; conditions: for Ultromotivity (count): hydrochloride, methamphetamine 1 mg/kg 15 minutes later, 60 minutes
Method: as §1
The effects of neferine on suppression of the enhancement of ultromotivity by methamphetamine were evaluated.
Fifteen mice were grouped into three groups of five mice, to which 50 mg/kg of neferine hydrochloride (treatment group 3-1), 100 mg/kg of the same (treatment group 3-2), and only physiological saline (negativity control group) were administered respectively intraperitoneally. Methamphetamine (1 mg/kg) was administered 15 minutes after the administration. After administration of methamphetamine, each of the mice was placed in a transparent polycarbonate cage (22.5 cm×33.8 cm×14.0 cm), where the ultromotivity of the mouse was analyzed for 60 minutes by using a locomotor activity analyzer (NS-AS01, Neuroscience Inc.).

[5] = Seibu et al., no specific data; cited from earlier work
[6] = tested on: mice; assay: Forced swimming test (Porsolt); assay type: in vivo; conditions: 100 mg/kg i.p., hydrochloride, 6-minute period
Method: as §1
Forced swimming tests were conducted according to the method of Porsolt et al. A mouse was placed in a cylindrical glass water tank of 10 cm in diameter and 25 cm in height (water temperature: 23° C.) filled with water to a depth of 10 cm and forced to swim therein. […] Each mouse was forced to swim 15 and 30 minutes after administration, and the immobile times during the 6-minute periods immediately after forced swimming were determined. […]

[7] = tested on: mice; conditions: Ito et al.; cited from earlier work
[8] = tested on: mice; assay: Glass ball-covering behavior test; assay type: in vivo; conditions: hydrochloride, 20 balls
Method: as §1
In evaluating glass ball-covering behavior, wood chip for breeding (beta chip) (Oriental Yeast Co., Ltd.) was placed in the transparent cage described in Example 3 to a depth of 5 cm, on which 20 glass balls (diameter: 1.5 cm) were placed evenly.
Twenty-one mice were grouped into three groups of seven mice, to which 25 mg/kg of neferine hydrochloride (treatment group 6-1), 50 mg/kg of the same (treatment group 6-2), and physiological saline (negativity control group) were administered intraperitoneally, respectively. A mouse was placed in the case 15 minutes after administration, and the number of the glass balls not covered with the wood chip was counted by visual observation at an interval of 10 minutes. The number of balls having ⅔ of the surface thereof being embedded in the wood chip was counted as the criteria for judgment.

[9] = tested on: mice; assay: Elevated plus-maze test; assay type: in vivo; conditions: 100 mg/kg i.p., hydrochloride, 30 minutes after administration, 5 minutes
Method: In the following Examples, all extracts and drugs used were dissolved in physiological saline before use for i.p. administration and the dose was 0.1 ml of physiological saline per 10 g of mouse body weight in either case. All extracts and drugs were suspended in physiological saline containing 1% carboxymethylcellulose before use for oral administration and the dose was 0.1 ml of 1% carboxymethylcellulose-containing physiological saline suspension per 10 g of mouse body weight in either case. […]
An elevated plus-maze (Neuroscience Inc.) consisting of 2 arms without high walls and 2 arms enclosed by high walls, which were crossing perpendicular to each other, was used for evaluation. A mouse was placed on the platform at the center in a position facing toward an arm enclosed by high walls, and the number of times the mouse entered into both arms and the period of the mouse staying in the arms without walls were determined during a period of 5 minutes. The results were evaluated by the ratios of the number of the mouse entering into the arms with walls with respect to the total number of entering into both arms (%) and by the period of the mouse staying in the arms without walls (%). […]

Structure (SMILES): COc1cc2c(cc1O)[C@@H](Cc1ccc(O)cc1)N(C)CC2 [N-methylcoclaurine]
- Sedative activity compared with neferine and liensinine (in words) ([1]; 5 mg/kg i.p. versus 50 mg/kg): extremely higher activity
- Ultromotivity (count) 30 minutes ([1]; 5 mg/kg i.p., hydrochloride): 250 count
- Ultromotivity (count) 60 minutes ([1]; 5 mg/kg i.p., hydrochloride): 250 count

Structure (SMILES): CN1C(=O)CN=C(c2ccccc2)c2cc(Cl)ccc21 [diazepam, reference compound]
- Significant difference test of ultromotivity ([1]; 5 mg/kg i.p.): P < 0.005
- Number of individuals fallen ([2]; 5 mg/kg i.p.): 5
- Total sleep time ([3]; 1 mg/kg i.p.): 130 min

Structure (SMILES): COc1ccc(C[C@@H]2c3cc(Oc4cc(C[C@@H]5c6cc(O)c(OC)cc6CCN5C)ccc4O)c(OC)cc3CCN2C)cc1 [isoliensinine]
- Total sleep time ([3]; 50 mg/kg i.p., hydrochloride): 120 min

Structure (SMILES): COc1cc2c(cc1OC)[C@@H](Cc1ccc(O)c(Oc3cc4c(cc3OC)CCN(C)[C@@H]4Cc3ccc(O)cc3)c1)N(C)CC2 [liensinine]
- Significant difference test of ultromotivity ([1]; 25 mg/kg i.p., hydrochloride): In declining
- Ultromotivity (count) 30 minutes ([1]; 50 mg/kg oral, hydrochloride): 600 count
- Ultromotivity (count) 60 minutes ([1]; 50 mg/kg oral, hydrochloride): 800 count
- Number of individuals fallen ([2]; 25 mg/kg i.p., hydrochloride): 0

Structure (SMILES): COc1ccc(C[C@@H]2c3cc(Oc4cc(C[C@@H]5c6cc(OC)c(OC)cc6CCN5C)ccc4O)c(OC)cc3CCN2C)cc1 [neferine]
- Significant difference test of ultromotivity ([1]; 25 mg/kg i.p., hydrochloride): P < 0.01
- Ultromotivity (count) 30 minutes ([1]; 50 mg/kg i.p., hydrochloride): 500 count
- Ultromotivity (count) 60 minutes ([1]; 50 mg/kg i.p., hydrochloride): 760 count
- Ultromotivity (count) 30 minutes ([1]; 50 mg/kg oral, hydrochloride): 500 count
- Ultromotivity (count) 60 minutes ([1]; 50 mg/kg oral, hydrochloride): 750 count
- Ultromotivity (count) ([4]; 50 mg/kg i.p.): 2600 count
- Ultromotivity (count) ([4]; 100 mg/kg i.p.): 1800 count
- Action on ultromotivity enhancement by methamphetamine (in words) ([4]; 50 and 100 mg/kg i.p.): obvious action suppressing the ultromotivity enhancement by methamphetamine
- Antihypertensive action (in words) [5]: exhibited an antihypertensive action
- Immobile time (sec) After 15 minutes ([6]; 15 minutes after administration): 165 s
- Immobile time (sec) After 30 minutes ([6]; 30 minutes after administration): 170 s
- Number of individuals fallen ([2]; 25 mg/kg i.p., hydrochloride): 0
- Total sleep time ([3]; 50 mg/kg i.p., hydrochloride): 100 min
- Locomotor activity-inhibiting action (in words) [7]: exhibited a locomotor activity-inhibiting action
- Number of glass balls not covered with wood chip After 10 minutes ([8]; 25 mg/kg i.p.): 4
- Number of glass balls not covered with wood chip After 20 minutes ([8]; 25 mg/kg i.p.): 7
- Number of glass balls not covered with wood chip After 30 minutes ([8]; 25 mg/kg i.p.): 10
- Number of glass balls not covered with wood chip After 10 minutes ([8]; 50 mg/kg i.p.): 3
- Number of glass balls not covered with wood chip After 20 minutes ([8]; 50 mg/kg i.p.): 6
- Number of glass balls not covered with wood chip After 30 minutes ([8]; 50 mg/kg i.p.): 9
- Staying period (%) ([9]; arms without walls): 33%
- Invasion times (%) ([9]; ratio to total entries): 70%
